Experimental data reported in patent US20260365633A1, “Novel PEM Structures for SBX” (Roche Sequencing Solutions, Inc., priority 2023, published 2026).

Experiments:
DNA polymerase [1] = assay: Primer extension with XNTPs, gel electrophoresis (PEM screen, 45mer template); format: biochemical; details: for primer extension products with XNTPs: 45mer template, FIG. 4, vs no PEM additive (up to only around 14 XNTPs)
Excerpt: The Sequencing by Expansion (SBX) methodology developed by the inventors provides significant performance enhancements in sequence read efficiency and accuracy of Xpandomers relative to native DNA. However, initial transcription of the sequence of the natural DNA template onto the measurable Xpandomer relies on the ability of DNA polymerase to utilize XNTPs as substrates (the generalized structure of an XNTP is discussed herein with reference to FIG. 1A and FIG. 2). […] In an effort to improve the efficiency and accuracy of XNTP polymerization into Xpandomers, several PEMs were screened for the ability to enhance DNA polymerase primer extension reactions using XNTPs as substrates.
A representative primer extension reaction may include the following reagents: 2 pmol primer, 2.2 pmol 45mer [COMPOUND LEFT OUT] template, 50 pmol of each XNTP (XATP, XCTP, XGTP, and XTTP), 50 Mm Tris HCl, Ph 6.79, 200 Mm NaCl, 20% PEG, 5% NMS, 0.5 nmol polyphosphate 60.19, 0.3 Mm MnCl2, and 0.6 μg of purified recombinant DNA polymerase protein. Reactions may be run for 1 hour at 23 °C. Reaction products (i.e., constrained Xpandomers) are treated to cleave the phosphoramidate bonds, thereby generating linearized Xpandomers. Reaction products may be analyzed using gel electrophoresis on 4-12% acrylamide gels to resolve and visualize Xpandomer products of different lengths. For the PEM screen described above, PEMs were typically tested in the micro to millimolar range.

DNA polymerase [2] = assay: SBX nanopore sequencing of primer extension products, histogram of aligned reads; format: biochemical
Excerpt: To investigate the accuracy of PEM-dependent enhancement of XNTP polymerization, primer extension products were sequenced using the SBX protocol. Briefly, the constrained Xpandomer products of XNTP polymerization are cleaved to generate linearized Xpandomers. This is accomplished by first quenching the extension reaction with a solution containing 100 Mm EDTA, 2 Mm THPTA, and 2% Tween-20. Then the sample is subjected to amine modification with a solution of 1 M NaHCO3 and 1 M succinic anhydride in DMF. Cleavage of the phosphoramidate bonds is carried out with 37% HCl and linearized Xpandomers are purified with QIAquick columns (QIAGEN, Inc.).
For sequencing, protein nanopores are prepared by inserting a-hemolysin into a DphPE/hexadecane bilayer member in buffer B1, containing 2 M NH4Cl and 100 Mm HEPES, Ph 7.4. The cis well is perfused with buffer B2, containing 0.4 M NH4Cl, 0.6 M GuCl, and 100 Mm HEPES, Ph 7.4. The Xpandomer sample is heated to 70 °C for 2 minutes, cooled completely, then a 2 μL sample is added to the cis well. A voltage pulse of 90Mv/390Mv/10 μs is then applied and data is acquired via Labview acquisition software.
Sequence data is analyzed by histogram display of the population of sequence reads from a single SBX reaction. […] Representative histograms of SBX sequencing of a 45mer template are presented in FIG. 6A (no additive control) and FIG. 6B (SBX in the presence of PEM compound 1).

C4552 DNA polymerase = biological target: T1, C4552 DNA polymerase (Saccharolobus solfataricus, UniProt Q97W02, A155G/A42V/D156R/D292Y/D294N/E291S/E324K/E325K/E327K/E79L/G187P/G299W/I153V/I189F/I248T/I295S/K152A/K317Q/K321Q/K56Y/K78D/L293W/M76W/N188Y/P184Q/Q82W/Q83G/R300S/S297Y/S86E/T290K/T301W/V289W/V296Q); assay: Primer extension on HIV1, HIV2, HIV3 100mer templates with C4552 polymerase, gel; format: biochemical, Sulfolobus solfataricus; details: 0.5 Mm PEM, 30 minutes at 23 °C, three 100mer templates, FIG. 9
T1 construct: Tth SSB in reaction as additive
T1 sequence (Q97W02 1-340 A155G/A42V/D156R/D292Y/D294N/E291S/E324K/E325K/E327K/E79L/G187P/G299W/I153V/I189F/I248T/I295S/K152A/K317Q/K321Q/K56Y/K78D/L293W/M76W/N188Y/P184Q/Q82W/Q83G/R300S/S297Y/S86E/T290K/T301W/V289W/V296Q): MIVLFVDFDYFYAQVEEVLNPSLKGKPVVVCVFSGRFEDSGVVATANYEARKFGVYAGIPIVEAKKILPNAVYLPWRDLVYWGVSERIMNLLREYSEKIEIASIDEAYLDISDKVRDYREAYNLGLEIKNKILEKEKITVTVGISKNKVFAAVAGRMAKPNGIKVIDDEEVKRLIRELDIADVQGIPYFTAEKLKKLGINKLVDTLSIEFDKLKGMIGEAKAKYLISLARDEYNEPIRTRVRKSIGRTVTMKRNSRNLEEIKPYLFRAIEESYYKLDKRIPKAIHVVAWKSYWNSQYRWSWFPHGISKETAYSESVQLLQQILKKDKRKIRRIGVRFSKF
Experimental: PEM activity of compounds 9-11 was tested in primer extension assays using three 100mer templates, derived from the HIV1, 2, and 3 genomes. Primer extension reactions included the following reagents: 75 Mm TrisCl, Ph 8.44, 175 Mm NH40ac, 20% PEG8K, 5% NMS, 0.8 nmol PP-60.20, 0.6 Mm MnCl2, 2.3 μg Tth single-strand binding protein (SSB), 0.5 M or 1 M urea, 200 pmol each XNTP, 1.1 pmol template, 1 pmol [COMPOUND LEFT OUT] primer, 1.2 μg purified recombinant C4552 DNA polymerase, and 0.5 Mm PEM. 10 μL primer extension reactions were run for 30 minutes at 23 °C and reaction products were analyzed by gel electrophoresis.

nucleic acid polymerase = assay: PEM activity summary: primer extension on 45mer, 100mer, 150mer, 222mer DNA templates, gel (Table 2); format: biochemical; details: preliminary functional characterization
Experimental: In some instances, the PEM compounds of the present disclosure were tested in primer extension reactions using DNA templates of the following lengths: A) 45mer; B) 100mer; C) 150mer; and D) 222mer.

Compound | primer extension products with XNTPs (DNA polymerase [1]) | Functional Category: PEM effect (nucleic acid polymerase) | other results
O=C(O)c1ccc(-n2cc(-c3cccc(-c4cn(-c5ccc(C(=O)O)c(O)c5)nn4)n3)nn2)cc1O [Compound 1, 4,4′-(pyridine-2,6-diylbis(1H-1,2,3-triazole-4,1-diyl))bis(2-hydroxybenzoic acid)] | considerably longer extension products | – | accuracy of sequence reads (DNA polymerase [2]; 45mer template, FIG. 6B, vs no additive (not accurate past around base 18)): increased the accuracy of the sequence reads across the entire length of the 45mer template; sequence reads (DNA polymerase [2]; 60mer template, FIG. 7A): accurate sequence reads completely to the end; sequence reads (DNA polymerase [2]; 80mer template, FIG. 7B): accurate sequence reads completely to the end
O=C(O)c1ccc(-n2cc(-c3cncc(-c4cn(-c5ccc(C(=O)O)c(O)c5)nn4)c3)nn2)cc1O [Compound 2, 4,4′-(pyridine-3,5-diylbis(1H-1,2,3-triazole-4,1-diyl))bis(2-hydroxybenzoic acid)] | – | – | primer extension activity with XNTPs (DNA polymerase [1]; FIG. 5, PEM at various concentrations, vs no PEM additive): significantly enhances primer extension activity
O=C(O)c1ccc(-n2cc(-c3cccc(-c4cn(-c5ccc(C(=O)O)c(O)c5)nn4)c3)nn2)cc1O [Compound 3, 4,4′-(1,3-phenylenebis(1H-1,2,3-triazole-4,1-diyl))bis(2-hydroxybenzoic acid)] | considerably longer extension products | – | –
O=C(O)c1ccc(-n2cc(-c3ccc4[nH]c5ccc(-c6cn(-c7ccc(C(=O)O)c(O)c7)nn6)cc5c4c3)nn2)cc1O [Compound 4, 4,4′-((9H-carbazole-3,6-diyl)bis(1H-1,2,3-triazole-4,1-diyl))bis(2-hydroxybenzoic acid)] | considerably longer extension products | – | –
COc1cc(-c2cn(-c3ccc(C(=O)O)c(O)c3)nn2)nc(-c2cn(-c3ccc(C(=O)O)c(O)c3)nn2)c1 [Compound 9, 4,4′-((4-methoxypyridine-2,6-diyl)bis(1H-1,2,3-triazole-4,1-diyl))bis(2-hydroxybenzoic acid)] | – | – | XNTP polymerization efficiency relative to compound 1 (C4552 DNA polymerase): at least as efficiently as compound 1
O=C(O)c1ccc(-n2cc(-c3cc([N+](=O)[O-])cc(-c4cn(-c5ccc(C(=O)O)c(O)c5)nn4)n3)nn2)cc1O [Compound 11, 4,4′-((4-nitropyridine-2,6-diyl)bis(1H-1,2,3-triazole-4,1-diyl))bis(2-hydroxybenzoic acid)] | – | – | XNTP polymerization efficiency relative to compound 1 (C4552 DNA polymerase): at least as efficiently as compound 1
CCNC(=O)c1cc(-c2cn(-c3ccc(C(=O)NCC(=O)NCC(=O)O)c(C(F)(F)F)c3)nn2)nc(-c2cn(-c3ccc(C(=O)NCC(=O)NCC(=O)O)c(C(F)(F)F)c3)nn2)c1 [Compound 113, 2,2′-((2,2′-((4,4′-((4-(ethylcarbamoyl)pyridine-2,6-diyl)bis(1H-1,2,3-triazole-4,1-diyl))bis(2-(trifluoromethyl)benzoyl))bis(azanediyl))bis(acetyl))bis(azanediyl))diacetic acid] | – | PEM effect | –
O=C(O)c1ccc(-n2cc(-c3cccc(-c4cn(-c5ccc(C(=O)O)c(O)c5)nn4)c3)nn2)cc1 [Compound 176, 4-(4-{m-[1-(p-Carboxyphenyl)-1H-1,2,3-triazol-4-yl]phenyl}-1H-1,2,3-triazol-1-yl)-2-hydroxybenzoic acid] | – | PEM effect | –
CCNC(=O)c1cc(-c2cn(-c3ccc4cc(C(=O)O)ccc4c3)nn2)nc(-c2cn(-c3ccc4cc(C(=O)O)ccc4c3)nn2)c1 [Compound 206, 6-(4-{6-[1-(6-Carboxy-2-naphthyl)-1H-1,2,3-triazol-4-yl]-4-(N-ethylcarbamoyl)-2-pyridyl}-1H-1,2,3-triazol-1-yl)-2-naphthoic acid] | – | PEM effect | –
CCNC(=O)c1cc(-c2cn(-c3ccc(C(=O)NCC)c(C(F)(F)F)c3)nn2)nc(-c2cn(-c3ccc(C(=O)NCC)c(C(F)(F)F)c3)nn2)c1 [Compound 236, N-Ethyl-2,6-bis{1-[4-(N-ethylcarbamoyl)-3-(trifluoromethyl)phenyl]-1H-1,2,3-triazol-4-yl}isonicotinamide] | – | PEM effect | –
